One may read the IC50 as the concentration needed to halve the response being measured. By inhibition is commonly meant the relative decrease from the control value, in per cent. The low end stands for a weak effect, the high end for a strong effect.

IC50 and inhibition data for 18 compounds are collected here from ChEMBL document CHEMBL1147649, “Design and synthesis of potent beta-secretase (BACE1) inhibitors with P1' carboxylic acid bioisosteres” (Bioorg Med Chem Lett, 2006).

In test [1] the target is T1, Beta-secretase 1 (Homo sapiens, UniProt P56817). Description: Inhibition of BACE1.
The target in test [2] is T1, Beta-secretase 1. Description: Inhibition of BACE1 at 2 uM.
The target of test [3] is T1, Beta-secretase 1. In words: Inhibition of BACE1 at 0.2 uM.

T1 sequence (P56817 whole entry): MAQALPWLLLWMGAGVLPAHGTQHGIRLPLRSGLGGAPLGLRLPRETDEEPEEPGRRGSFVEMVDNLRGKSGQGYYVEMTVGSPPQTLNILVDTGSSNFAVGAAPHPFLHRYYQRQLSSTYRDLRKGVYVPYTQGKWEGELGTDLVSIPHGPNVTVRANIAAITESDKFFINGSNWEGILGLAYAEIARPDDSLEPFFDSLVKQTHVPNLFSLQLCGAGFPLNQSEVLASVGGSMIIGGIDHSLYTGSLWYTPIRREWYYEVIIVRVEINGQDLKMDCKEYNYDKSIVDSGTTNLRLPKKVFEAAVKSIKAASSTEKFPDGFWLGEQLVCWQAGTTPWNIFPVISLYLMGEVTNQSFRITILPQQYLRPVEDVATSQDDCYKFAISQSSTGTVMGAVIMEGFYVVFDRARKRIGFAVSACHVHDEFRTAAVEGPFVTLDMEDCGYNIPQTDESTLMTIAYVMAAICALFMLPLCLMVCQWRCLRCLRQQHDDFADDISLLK

On to `CC(C)C[C@H](NC(=O)[C@@H](NC(=O)[C@@H](N)CNC(=O)c1nn[nH]n1)C(C)C)C(=O)N[C@@H](Cc1ccccc1)[C@@H](O)C(=O)Nc1cccc(-c2noc(O)n2)c1`, for which the midpoint of inhibition at Beta-secretase 1 [1], the IC50, lay at 6.6 nM. Also, the inhibition on Beta-secretase 1 [2] is 100%; against Beta-secretase 1 [3], 94.2%.

With `CC(C)C[C@H](NC(=O)[C@@H](NC(=O)[C@@H](N)CCC(=O)O)C(C)C)C(=O)N[C@@H](Cc1ccccc1)[C@@H](O)C(=O)Nc1cccc(-c2nsc(=O)[nH]2)c1`, the figures for the inhibition against Beta-secretase 1 [2] and on Beta-secretase 1 [3] were 91.9% and 63.2%, respectively.

Compound `CC(C)C[C@H](NC(=O)[C@@H](NC(=O)[C@@H](N)CCC(=O)O)C(C)C)C(=O)N[C@@H](Cc1ccccc1)[C@@H](O)C(=O)Nc1cccc(C(=O)O)c1` came in with an inhibition at Beta-secretase 1 [3] of 44.4%.

For the compound `CC(C)C[C@H](NC(=O)[C@@H](NC(=O)[C@@H](N)CNC(=O)c1nn[nH]n1)C(C)C)C(=O)N[C@@H](Cc1ccccc1)[C@@H](O)C(=O)Nc1cccc(-c2noc(S)n2)c1`, the inhibition at Beta-secretase 1 [2] came out at 99.8%; on Beta-secretase 1 [3] it was 97.2%.

Take `CC(C)C[C@H](NC(=O)[C@@H](NC(=O)[C@@H](N)CCC(=O)O)C(C)C)C(=O)N[C@@H](Cc1ccccc1)[C@@H](O)C(=O)Nc1cccc(-c2nn[nH]n2)c1`: the inhibition was 92.2% against Beta-secretase 1 [2] and 73.7% at Beta-secretase 1 [3].

For `CC(C)C[C@H](NC(=O)[C@@H](NC(=O)[C@@H](N)CCC(=O)O)C(C)C)C(=O)N[C@@H](Cc1ccccc1)[C@@H](O)C(=O)Nc1cccc(-c2noc(=S)[nH]2)c1`, the inhibition against Beta-secretase 1 [2] turned out to be 94.5%; at Beta-secretase 1 [3], 68.4%.

Compound `CC(C)C[C@H](NC(=O)[C@@H](NC(=O)[C@@H](N)CCC(=O)O)C(C)C)C(=O)N[C@@H](Cc1ccccc1)[C@@H](O)C(=O)Nc1cccc(C(N)=O)c1` returned an inhibition against Beta-secretase 1 [2] of 62.1%.

As to `CC(C)C[C@H](NC(=O)[C@@H](NC(=O)[C@@H](N)CNC(=O)c1nn[nH]n1)C(C)C)C(=O)N[C@@H](Cc1ccccc1)[C@@H](O)C(=O)Nc1cc(-c2nn[nH]n2)cc(-c2nn[nH]n2)c1`, the inhibition against Beta-secretase 1 [2] and against Beta-secretase 1 [3] was 100% in each case.

In the case of `CC(C)C[C@H](NC(=O)[C@@H](NC(=O)[C@@H](N)CNC(=O)c1nn[nH]n1)C(C)C)C(=O)N[C@@H](Cc1ccccc1)[C@@H](O)C(=O)Nc1cccc(C(N)=O)c1`, the inhibition at Beta-secretase 1 [2] was 97.3%; against Beta-secretase 1 [3], 78.1%.

Take `CC(C)C[C@H](NC(=O)[C@@H](NC(=O)[C@@H](N)CCC(=O)O)C(C)C)C(=O)N[C@@H](Cc1ccccc1)[C@@H](O)C(=O)Nc1cc(C(=O)O)cc(C(=O)O)c1`: the inhibition against Beta-secretase 1 [2] was found to be 98.3%; against Beta-secretase 1 [3], 84.3%.

`CC(C)C[C@H](NC(=O)[C@@H](NC(=O)[C@@H](N)CNC(=O)c1nnn[nH]1)C(C)C)C(=O)N[C@@H](Cc1ccccc1)[C@@H](O)C(=O)Nc1cccc(-c2nc(=S)o[nH]2)c1` yielded an IC50 against Beta-secretase 1 [1] of 6.4 nM.

On Beta-secretase 1 [2], `CC(C)C[C@H](NC(=O)[C@@H](NC(=O)[C@@H](N)CCC(=O)O)C(C)C)C(=O)N[C@@H](Cc1ccccc1)[C@@H](O)C(=O)Nc1cccc(C(=N)N)c1` gave an inhibition of 29.2%.

On Beta-secretase 1 [1], `CC(C)C[C@H](NC(=O)[C@@H](NC(=O)[C@@H](N)CCC(=O)O)C(C)C)C(=O)N[C@@H](Cc1ccccc1)[C@@H](O)C(=O)Nc1cc(-c2nn[nH]n2)cc(-c2nn[nH]n2)c1` showed an IC50 of 6.4 nM. Also, the inhibition was 99.7% at Beta-secretase 1 [2] and 94% on Beta-secretase 1 [3].

`CC(C)C[C@H](NC(=O)[C@@H](NC(=O)[C@@H](N)CCC(=O)O)C(C)C)C(=O)N[C@@H](Cc1ccccc1)[C@@H](O)C(=O)Nc1cccc(-c2n[nH]c(=S)o2)c1`: the inhibition at Beta-secretase 1 [2] is 92%; on Beta-secretase 1 [3], 72.3%.

Take `CC(C)C[C@H](NC(=O)[C@@H](NC(=O)[C@@H](N)CCC(=O)O)C(C)C)C(=O)N[C@@H](Cc1ccccc1)[C@@H](O)C(=O)Nc1cccc(-c2noc(=O)[nH]2)c1`: the inhibition on Beta-secretase 1 [2] was determined as 94.4%; at Beta-secretase 1 [3] it was 66.3%.

Compound `CC(C)C[C@H](NC(=O)[C@@H](NC(=O)[C@@H](N)CNC(=O)c1nnn[nH]1)C(C)C)C(=O)N[C@@H](Cc1ccccc1)[C@@H](O)C(=O)Nc1cc(-c2nnn[nH]2)cc(-c2nnn[nH]2)c1` registered an IC50 against Beta-secretase 1 [1] of 1.2 nM.

On Beta-secretase 1 [1], `CC(C)C[C@H](NC(=O)[C@@H](NC(=O)[C@@H](N)CNC(=O)c1nnn[nH]1)C(C)C)C(=O)N[C@@H](Cc1ccccc1)[C@@H](O)C(=O)Nc1cccc(-c2nnn[nH]2)c1` registered a concentration for half-maximal inhibition (IC50) of 4.8 nM.

Regarding `CC(C)C[C@H](NC(=O)[C@@H](NC(=O)[C@@H](N)CCC(=O)O)C(C)C)C(=O)N[C@@H](Cc1ccccc1)[C@@H](O)C(=O)Nc1cccc(-c2n[nH]c(=S)n2C)c1`, the inhibition against Beta-secretase 1 [2] worked out at 74.2%.
